Columns and labels:
Type in all cases: biochemical
Erk2 = target: T1, Erk2 (Homo sapiens, UniProt P28482); assay: Desktop Profiler kinase panel, Erk2; details: 10 micromolar concentration of the compound; read-out: Percent Inhibition Erk2
T1 construct: purchased Caliper Life Sciences
Method: (§1) The Aurora assays described here are performed on two Caliper Life Sciences systems: the LC3000 and the Desktop Profiler. These provide data on enzyme activity via measurement of the relative amounts of phosphorylated or unphosphorylated fluorescently labelled substrate peptide at the end of an enzymatic reaction. These different states of peptide are resolved by applying a potential difference across the sample. The presence of the charged phosphate group on the product (as opposed to the substrate) causes a different peptide mobility between the two peptides. This is visualized by excitation of the fluorescent label on the substrate and product peptides and represented as peaks within the analysis software.
(§2) The Desktop Profiler utilizes the same principle as the LC3000 for calculating percentage conversion of a substrate to product. Caliper Life Sciences provides proprietary flash frozen pre-made 384 well plates containing selected kinases. Each column in the 384 well plate contains a particular selected kinase. A second plate, the ‘substrate plate’ contains a mix of fluorescently labeled peptide substrate and ATP. […]
(§3) Reading of the plate in the Profiler is identical to the LC3000, and the ratio between substrate and product peaks provides the activity of the enzyme in that well. […]

PKCz = target: T2, PKCz (Homo sapiens, UniProt Q05513); assay: Desktop Profiler kinase panel, PKCz; details: 10 micromolar concentration of the compound; read-out: Percent Inhibition PKCz
T2 construct: purchased Caliper Life Sciences
Method: as §1, §2, §3

CK1d = target: T3, CK1d (Homo sapiens, UniProt P48730); assay: Desktop Profiler kinase panel, CK1d; details: 10 micromolar concentration of the compound; read-out: Percent Inhibition CK1d
T3 construct: purchased Caliper Life Sciences
Method: as §1
(§4) The Desktop Profiler utilizes the same principle as the LC3000 for calculating percentage conversion of a substrate to product. Caliper Life Sciences provides proprietary flash frozen pre-made 384 well plates containing selected kinases. Each column in the 384 well plate contains a particular selected kinase. A second plate, the ‘substrate plate’ contains a mix of fluorescently labeled peptide substrate and ATP. These are arranged in columns so that transfer for substrate plate to enzyme plate provides the correct enzyme with the correct substrate/ATP concentration. Compounds are added to a thawed enzyme plate in the desired format, in single concentrations. Reactions are initiated by transfer of the substrate/ATP mix from the substrate plate. The enzyme plate is incubated for 90 mins at 25 C. The reaction is stopped by addition of 70 ul of Stop Buffer (100 mM HEPES pH 7.5, 0.015% Brij-35, 10 mM EDTA (Sigma, E7889)).
(§5) Reading of the plate in the Profiler is identical to the LC3000, and the ratio between substrate and product peaks provides the activity of the enzyme in that well. This is best represented by a plate heat map which colors each well by percent inhibition as compared to positive and negative controls (no inhibitors and no ATP respectively).
(§6) In the following Tables 3a-4-b, which show the results of the desktop profiler measurements, “+” means 50-70% inhibition, “++” means 70-90% inhibition, and “+++” means >90% inhibition. The enzymes tested for profiling were ABL, AKT1, AKT2, AurA, CHK1, CHK2, CK1d, Erk1, Erk2, FYN, GSK3b, INSR, LCK, LYN, MAPKAPK2, MET, MSK1, p38a, PKA, PKCz, PKD2, PRAK, RSK1 and SRC.

RSK1 = target: T4, RSK1 (Homo sapiens, UniProt Q15418); assay: Desktop Profiler kinase panel, RSK1; details: 10 micromolar concentration of the compound; read-out: Percent Inhibition RSK1
T4 construct: purchased Caliper Life Sciences
Method: as §1, §4, §5, §6

MET = target: T5, MET (Homo sapiens, UniProt P08581); assay: Desktop Profiler kinase panel, MET; details: 10 micromolar concentration of the compound; read-out: Percent Inhibition MET
T5 construct: purchased Caliper Life Sciences
Method: as §1, §2, §3

AKT1 = target: T6, AKT1 (Homo sapiens, UniProt P31749); assay: Desktop Profiler kinase panel, AKT1; details: 10 micromolar concentration of the compound; read-out: Percent Inhibition AKT1
T6 construct: purchased Caliper Life Sciences
Method: as §1, §2, §3

LYN = target: T7, LYN (Homo sapiens, UniProt P07948); assay: Desktop Profiler kinase panel, LYN; details: 10 micromolar concentration of the compound; read-out: Percent Inhibition LYN
T7 construct: purchased Caliper Life Sciences
Method: as §1, §4, §5, §6

MAPKAPK2 = target: T8, MAPKAPK2 (Homo sapiens, UniProt P49137); assay: Desktop Profiler kinase panel, MAPKAPK2; details: 10 micromolar concentration of the compound; read-out: Percent Inhibition MAPKAPK2
T8 construct: purchased Caliper Life Sciences
Method: as §1, §2, §3

LCK = target: T9, LCK (Homo sapiens, UniProt P06239); assay: Desktop Profiler kinase panel, LCK; details: 10 micromolar concentration of the compound; read-out: Percent Inhibition LCK
T9 construct: purchased Caliper Life Sciences
Method: as §1, §4, §5, §6

p38a = target: T10, p38a (Homo sapiens, UniProt Q16539); assay: Desktop Profiler kinase panel, p38a; details: 10 micromolar concentration of the compound; read-out: Percent Inhibition p38a
T10 construct: purchased Caliper Life Sciences
Method: as §1, §2, §3

SRC = target: T11, SRC (Homo sapiens, UniProt P12931); assay: Desktop Profiler kinase panel, SRC; details: 10 micromolar concentration of the compound; read-out: Percent Inhibition SRC
T11 construct: purchased Caliper Life Sciences
Method: as §1, §4, §5, §6

PRAK = target: T12, PRAK (Homo sapiens, UniProt Q8IW41); assay: Desktop Profiler kinase panel, PRAK; details: 10 micromolar concentration of the compound; read-out: Percent Inhibition PRAK
T12 construct: purchased Caliper Life Sciences
T12 sequence (Q8IW41 1-473): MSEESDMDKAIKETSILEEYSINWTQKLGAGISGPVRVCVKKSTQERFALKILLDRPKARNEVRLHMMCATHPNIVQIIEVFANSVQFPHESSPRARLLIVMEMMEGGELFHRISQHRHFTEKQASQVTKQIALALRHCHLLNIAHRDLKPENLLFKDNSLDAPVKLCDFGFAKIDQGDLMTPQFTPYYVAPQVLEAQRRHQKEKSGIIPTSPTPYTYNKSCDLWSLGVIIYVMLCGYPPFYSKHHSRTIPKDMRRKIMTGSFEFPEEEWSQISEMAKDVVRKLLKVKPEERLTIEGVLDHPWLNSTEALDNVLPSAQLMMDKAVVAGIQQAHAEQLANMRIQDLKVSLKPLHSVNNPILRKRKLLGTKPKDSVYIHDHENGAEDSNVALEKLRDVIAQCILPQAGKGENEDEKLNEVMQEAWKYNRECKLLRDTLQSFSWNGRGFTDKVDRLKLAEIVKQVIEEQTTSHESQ
Method: as §1, §4
as §5, with “respectively). […]” for “respectively).”

CHK2 = target: T13, CHK2 (Homo sapiens, UniProt O96017); assay: Desktop Profiler kinase panel, CHK2; details: 10 micromolar concentration of the compound; read-out: Percent Inhibition CHK2
T13 construct: purchased Caliper Life Sciences
Method: as §1, §4, §5, §6

Erk1 = target: T14, Erk1 (Homo sapiens, UniProt P27361); assay: Desktop Profiler kinase panel, Erk1; details: 10 micromolar concentration of the compound; read-out: Percent Inhibition Erk1
T14 construct: purchased Caliper Life Sciences
Method: as §1, §2, §3

T7 sequence (P07948 whole entry, species assumed): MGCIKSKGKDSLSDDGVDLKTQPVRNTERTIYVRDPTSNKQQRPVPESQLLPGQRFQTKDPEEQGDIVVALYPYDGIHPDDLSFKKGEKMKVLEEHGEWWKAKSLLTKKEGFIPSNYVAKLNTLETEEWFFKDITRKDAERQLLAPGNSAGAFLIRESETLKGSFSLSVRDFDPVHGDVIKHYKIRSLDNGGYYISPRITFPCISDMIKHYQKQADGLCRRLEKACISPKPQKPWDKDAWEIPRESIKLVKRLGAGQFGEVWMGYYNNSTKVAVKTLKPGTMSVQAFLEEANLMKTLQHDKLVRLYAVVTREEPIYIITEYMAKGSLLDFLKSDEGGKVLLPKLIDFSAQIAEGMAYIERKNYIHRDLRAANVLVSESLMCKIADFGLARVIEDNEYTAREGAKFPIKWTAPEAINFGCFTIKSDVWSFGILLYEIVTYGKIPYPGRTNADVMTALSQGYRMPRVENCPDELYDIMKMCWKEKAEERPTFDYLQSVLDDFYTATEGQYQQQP
T13 sequence (O96017 whole entry, species assumed): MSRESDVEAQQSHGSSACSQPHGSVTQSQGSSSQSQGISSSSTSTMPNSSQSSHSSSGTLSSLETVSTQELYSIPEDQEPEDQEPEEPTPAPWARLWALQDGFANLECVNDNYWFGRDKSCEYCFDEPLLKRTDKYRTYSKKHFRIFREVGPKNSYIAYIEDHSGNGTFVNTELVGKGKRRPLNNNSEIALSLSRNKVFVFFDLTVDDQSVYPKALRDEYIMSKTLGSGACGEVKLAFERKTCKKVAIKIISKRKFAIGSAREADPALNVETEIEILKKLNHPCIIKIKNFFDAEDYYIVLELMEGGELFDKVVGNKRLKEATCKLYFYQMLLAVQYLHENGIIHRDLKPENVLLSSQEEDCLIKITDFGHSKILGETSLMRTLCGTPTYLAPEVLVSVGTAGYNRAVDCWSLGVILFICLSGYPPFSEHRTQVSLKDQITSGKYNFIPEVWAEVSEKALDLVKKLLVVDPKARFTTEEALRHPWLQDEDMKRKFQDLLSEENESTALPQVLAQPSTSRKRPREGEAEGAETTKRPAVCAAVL
T3 sequence (P48730 whole entry): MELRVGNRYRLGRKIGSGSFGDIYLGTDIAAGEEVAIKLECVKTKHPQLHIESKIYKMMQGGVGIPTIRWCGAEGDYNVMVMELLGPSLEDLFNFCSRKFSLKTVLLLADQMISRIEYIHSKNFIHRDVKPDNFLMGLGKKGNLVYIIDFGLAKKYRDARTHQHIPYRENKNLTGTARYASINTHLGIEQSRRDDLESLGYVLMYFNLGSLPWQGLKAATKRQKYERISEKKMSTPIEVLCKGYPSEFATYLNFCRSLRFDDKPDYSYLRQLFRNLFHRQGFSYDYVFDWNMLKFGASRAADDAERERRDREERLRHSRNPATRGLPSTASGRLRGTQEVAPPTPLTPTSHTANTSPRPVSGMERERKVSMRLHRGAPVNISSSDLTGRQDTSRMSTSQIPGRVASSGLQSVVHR
T4 sequence (Q15418 whole entry, species assumed): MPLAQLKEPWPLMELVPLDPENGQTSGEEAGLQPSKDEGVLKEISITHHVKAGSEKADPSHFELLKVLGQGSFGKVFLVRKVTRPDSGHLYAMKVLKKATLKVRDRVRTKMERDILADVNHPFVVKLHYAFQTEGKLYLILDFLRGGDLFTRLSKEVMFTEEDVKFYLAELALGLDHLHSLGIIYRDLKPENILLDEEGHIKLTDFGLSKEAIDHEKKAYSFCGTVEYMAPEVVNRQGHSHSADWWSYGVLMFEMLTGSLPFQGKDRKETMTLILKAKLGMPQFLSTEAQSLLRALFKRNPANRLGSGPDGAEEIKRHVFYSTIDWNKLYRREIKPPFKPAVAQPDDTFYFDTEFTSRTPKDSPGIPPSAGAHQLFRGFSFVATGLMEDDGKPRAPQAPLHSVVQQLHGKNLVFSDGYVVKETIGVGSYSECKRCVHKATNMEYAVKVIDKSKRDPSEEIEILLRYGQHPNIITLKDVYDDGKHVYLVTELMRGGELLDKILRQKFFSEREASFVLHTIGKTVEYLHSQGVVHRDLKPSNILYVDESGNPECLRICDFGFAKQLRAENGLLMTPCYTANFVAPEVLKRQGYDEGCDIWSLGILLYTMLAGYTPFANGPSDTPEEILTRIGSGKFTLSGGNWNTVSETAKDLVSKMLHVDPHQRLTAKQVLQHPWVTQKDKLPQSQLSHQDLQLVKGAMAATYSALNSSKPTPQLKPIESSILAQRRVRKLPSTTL
T11 sequence (P12931 whole entry, species assumed): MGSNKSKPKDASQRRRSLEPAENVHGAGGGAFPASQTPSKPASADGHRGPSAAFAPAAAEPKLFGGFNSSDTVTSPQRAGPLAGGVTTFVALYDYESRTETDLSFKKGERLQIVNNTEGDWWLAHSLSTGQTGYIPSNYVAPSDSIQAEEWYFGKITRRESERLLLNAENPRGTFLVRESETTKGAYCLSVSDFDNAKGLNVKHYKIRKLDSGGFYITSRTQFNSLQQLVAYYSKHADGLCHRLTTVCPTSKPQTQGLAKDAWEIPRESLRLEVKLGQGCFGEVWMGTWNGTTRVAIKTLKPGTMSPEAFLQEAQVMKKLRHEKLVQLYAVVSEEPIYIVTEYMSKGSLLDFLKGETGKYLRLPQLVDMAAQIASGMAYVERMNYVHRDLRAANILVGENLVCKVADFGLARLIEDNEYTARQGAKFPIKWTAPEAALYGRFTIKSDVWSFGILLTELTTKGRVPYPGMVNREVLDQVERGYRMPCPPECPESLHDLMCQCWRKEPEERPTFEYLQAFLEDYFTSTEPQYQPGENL
T8 sequence (P49137 whole entry, species assumed): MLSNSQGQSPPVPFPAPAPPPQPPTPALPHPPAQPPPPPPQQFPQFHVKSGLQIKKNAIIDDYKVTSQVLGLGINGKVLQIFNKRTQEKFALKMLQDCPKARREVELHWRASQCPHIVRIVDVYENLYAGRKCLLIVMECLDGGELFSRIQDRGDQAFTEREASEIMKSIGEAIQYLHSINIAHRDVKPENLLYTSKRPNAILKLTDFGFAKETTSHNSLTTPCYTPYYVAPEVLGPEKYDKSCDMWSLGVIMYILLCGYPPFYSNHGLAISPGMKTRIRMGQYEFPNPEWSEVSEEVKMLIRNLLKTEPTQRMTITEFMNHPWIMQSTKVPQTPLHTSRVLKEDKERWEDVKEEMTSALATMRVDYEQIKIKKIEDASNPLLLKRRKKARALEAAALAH
T9 sequence (P06239 whole entry, species assumed): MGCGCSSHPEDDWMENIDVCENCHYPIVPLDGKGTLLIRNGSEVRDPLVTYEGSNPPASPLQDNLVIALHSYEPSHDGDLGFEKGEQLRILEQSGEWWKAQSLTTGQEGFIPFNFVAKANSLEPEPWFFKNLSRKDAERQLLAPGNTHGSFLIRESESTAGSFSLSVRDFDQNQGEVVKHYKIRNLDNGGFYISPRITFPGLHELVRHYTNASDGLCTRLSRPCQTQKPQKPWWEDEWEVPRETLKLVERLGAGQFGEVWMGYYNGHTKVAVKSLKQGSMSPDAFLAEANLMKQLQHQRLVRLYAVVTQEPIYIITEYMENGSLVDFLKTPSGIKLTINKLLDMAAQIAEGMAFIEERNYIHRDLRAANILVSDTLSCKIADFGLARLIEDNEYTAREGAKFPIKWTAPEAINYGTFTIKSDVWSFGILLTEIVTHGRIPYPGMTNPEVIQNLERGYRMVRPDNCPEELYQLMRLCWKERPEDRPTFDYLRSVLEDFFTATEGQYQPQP
T1 sequence (P28482 whole entry, species assumed): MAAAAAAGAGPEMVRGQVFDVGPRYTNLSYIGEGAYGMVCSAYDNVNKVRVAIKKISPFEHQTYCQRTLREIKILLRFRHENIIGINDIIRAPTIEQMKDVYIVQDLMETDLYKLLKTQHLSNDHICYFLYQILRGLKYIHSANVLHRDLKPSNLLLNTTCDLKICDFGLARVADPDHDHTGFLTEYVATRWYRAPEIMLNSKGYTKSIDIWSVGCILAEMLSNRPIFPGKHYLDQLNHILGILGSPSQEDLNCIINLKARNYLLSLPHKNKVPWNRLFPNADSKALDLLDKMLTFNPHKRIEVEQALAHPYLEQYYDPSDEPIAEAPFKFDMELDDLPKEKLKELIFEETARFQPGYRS
T6 sequence (P31749 whole entry, species assumed): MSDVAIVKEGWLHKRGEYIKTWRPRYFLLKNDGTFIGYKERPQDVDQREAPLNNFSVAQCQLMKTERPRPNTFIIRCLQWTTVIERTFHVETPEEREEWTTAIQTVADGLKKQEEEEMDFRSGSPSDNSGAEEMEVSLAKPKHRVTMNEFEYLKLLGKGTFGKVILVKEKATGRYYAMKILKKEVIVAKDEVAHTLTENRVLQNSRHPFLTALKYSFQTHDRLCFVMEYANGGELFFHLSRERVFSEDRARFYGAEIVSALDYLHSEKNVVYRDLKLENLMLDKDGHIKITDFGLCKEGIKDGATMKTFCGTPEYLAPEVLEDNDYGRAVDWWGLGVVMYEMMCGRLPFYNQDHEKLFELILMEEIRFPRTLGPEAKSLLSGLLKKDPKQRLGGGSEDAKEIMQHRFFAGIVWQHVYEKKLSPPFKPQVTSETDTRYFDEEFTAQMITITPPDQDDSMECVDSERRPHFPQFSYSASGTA
T14 sequence (P27361 whole entry, species assumed): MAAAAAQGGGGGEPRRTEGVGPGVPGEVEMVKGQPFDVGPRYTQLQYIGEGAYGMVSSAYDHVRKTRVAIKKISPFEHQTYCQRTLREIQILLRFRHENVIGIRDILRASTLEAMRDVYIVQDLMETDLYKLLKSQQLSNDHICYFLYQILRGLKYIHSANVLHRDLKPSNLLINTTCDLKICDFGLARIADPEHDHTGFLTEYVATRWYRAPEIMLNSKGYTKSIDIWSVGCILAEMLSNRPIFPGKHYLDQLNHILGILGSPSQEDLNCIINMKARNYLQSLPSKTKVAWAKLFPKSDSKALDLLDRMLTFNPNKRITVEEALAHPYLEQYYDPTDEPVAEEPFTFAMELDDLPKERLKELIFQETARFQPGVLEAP

inhibition at 10 µM (Erk2) [%] | inhibition at 10 µM (PKCz) [%] | inhibition at 10 µM (CK1d) [%] | inhibition at 10 µM (RSK1) [%] | inhibition at 10 µM (MET) [%] | inhibition at 10 µM (AKT1) [%] | inhibition at 10 µM (LYN) [%] | inhibition at 10 µM (MAPKAPK2) [%] | inhibition at 10 µM (LCK) [%] | inhibition at 10 µM (p38a) [%] | inhibition at 10 µM (SRC) [%] | inhibition at 10 µM (PRAK) [%] | inhibition at 10 µM (CHK2) [%] | inhibition at 10 µM (Erk1) [%] | Structure (SMILES)
70 to 90 | 50 to 70 | 70 to 90 | 70 to 90 | > 90 | > 90 | > 90 | 50 to 70 | > 90 | 50 to 70 | > 90 | 70 to 90 | 70 to 90 | 70 to 90 | CC(=O)Nc1ccc(Oc2ccc3c(=O)[nH]c4ncccc4c3c2)cc1 [Example 81, N-[4-(6-Oxo-5,6-dihydro-benzo[c][1,8]naphthyridin-9-yloxy)-phenyl]-acetamide]
 |  | 50 to 70 | 50 to 70 |  |  | 70 to 90 | > 90 |  |  | 50 to 70 | > 90 | 50 to 70 |  | NC(=O)c1ccc(Oc2ccc3c(=O)[nH]c4ncccc4c3c2)cc1 [Example 82]
70 to 90 |  | 70 to 90 | 50 to 70 |  | 70 to 90 | > 90 |  | > 90 |  | 70 to 90 | 70 to 90 | 50 to 70 | 70 to 90 | O=c1[nH]c2ncccc2c2cc(Nc3cccc(F)c3)ccc12 [Example 31, 9-(3-Fluoro-phenylamino)-5H-benzo[c][1,8]naphthyridin-6-one]

— patent US8735584B2 (Merck Patent GmbH, priority 2008, dated 2014)
